Results from US10093623B2, “Cyclic amides as MetAP-2 inhibitors” (MERCK PATENT GmbH, priority 2012, dated 2018).

What follows are molecules tested against MetAP-2 (Homo sapiens, UniProt P50579) (assay: MetAP-2 activity measurement (coupled enzymatic reactions, Met-Arg-Ser substrate, dianisidine detection at 450 nm)). Conditions: Inhibition of MetAP-2; read-out: IC50 enzyme.
MetAP-2, sequence (P50579 whole entry, species assumed): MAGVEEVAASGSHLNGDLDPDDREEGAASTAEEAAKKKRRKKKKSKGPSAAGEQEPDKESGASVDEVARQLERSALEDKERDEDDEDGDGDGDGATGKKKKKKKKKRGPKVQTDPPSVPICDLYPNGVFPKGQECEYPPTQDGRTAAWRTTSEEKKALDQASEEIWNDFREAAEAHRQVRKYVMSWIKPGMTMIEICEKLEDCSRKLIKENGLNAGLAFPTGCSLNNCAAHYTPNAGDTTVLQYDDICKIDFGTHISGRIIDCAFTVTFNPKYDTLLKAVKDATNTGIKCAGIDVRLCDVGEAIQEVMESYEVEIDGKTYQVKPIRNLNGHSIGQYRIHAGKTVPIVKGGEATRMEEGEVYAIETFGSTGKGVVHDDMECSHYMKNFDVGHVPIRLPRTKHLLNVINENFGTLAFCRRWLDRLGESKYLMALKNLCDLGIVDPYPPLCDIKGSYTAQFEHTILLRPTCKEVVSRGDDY
Format: biochemical
Method in brief: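 Coupled continuous assay with Met-Arg-Ser tripeptide substrate: released methionine oxidised by L-amino acid oxidase to give H2O2, which peroxidase uses to oxidise dianisidine, followed at 450 nm. Activity taken as slope of absorbance versus time over the visually linear region; dianisidine extinction coefficient converts to mol Met per time.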
With `O=C1CCc2cc(NC(=O)C3CCN(c4ccc5c(c4)CCC(=O)N5)C3=O)ccc2N1` (stereo not shown) [A158, N-(2-Oxo-1,2,3,4-tetrahydro-quinolin-6-yl)-2-oxo-1-(2-oxo-1,2,3,4-tetrahydroquinolin-6-yl)-pyrrolidine-3-carboxamide] the IC50 was over 10 µM. `NC(=O)c1cccc(N2CC[C@@](O)(C(=O)NCCc3cc(F)cc(Cl)c3)C2=O)c1` [A159, N-[2-(3-Chloro-5-fluorophenyl)-ethyl]-(R)-1-(3-carbamoyl-phenyl)-3-hydroxy-2-oxo-pyrrolidine-3-carboxamide] was tested, and the IC50 was 1 to 10 µM. Work on `CNC(=O)c1cccc(N2CC[C@](O)(C(=O)NCc3cc(F)cc(Cl)c3)C2=O)c1` [A161, N-(3-Chloro-5-fluorobenzyl)-(S)-3-hydroxy-1-(3-methyl-carbamoylphenyl)-2-oxo-pyrrolidine-3-carboxamide] yielded an IC50 of 0.01 to 1 µM. `CNC(=O)c1cccc(N2CC[C@@](O)(C(=O)NCc3cc(F)cc(Cl)c3)C2=O)c1` [A162, N-(3-Chloro-5-fluorobenzyl)-(R)-3-hydroxy-1-(3-methyl-carbamoylphenyl)-2-oxo-pyrrolidine-3-carboxamide] showed an IC50 of over 10 µM. `O=C(NC1CCC1)c1cccc(N2CC[C@](O)(C(=O)NCc3cc(F)cc(Cl)c3)C2=O)c1` [A163, N-(3-Chloro-5-fluorobenzyl)-(S)-1-(3-cyclobutylcarbamoyl-phenyl)-3-hydroxy-2-oxo-pyrrolidine-3-carboxamide] gave an IC50 of 0.01 to 1 µM. In the case of `O=C(NC1CCC1)c1cccc(N2CC[C@@](O)(C(=O)NCc3cc(F)cc(Cl)c3)C2=O)c1` [A164, N-(3-Chloro-5-fluorobenzyl)-(R)-1-(3-cyclobutylcarbamoyl-phenyl)-3-hydroxy-2-oxo-pyrrolidine-3-carboxamide], the IC50 is reported as over 10 µM. In the case of `CN(c1cccc(N2CC[C@](O)(C(=O)NCc3cc(F)cc(Cl)c3)C2=O)c1)S(C)(=O)=O` [A165, N-(3-Chloro-5-fluorobenzyl)-(S)-3-hydroxy-1-[3-(methane-sulfonylmethylamino)phenyl]-2-oxopyrrolidine-3-carboxamide], the IC50 is reported as 0.01 to 1 µM. `CN(c1cccc(N2CC[C@@](O)(C(=O)NCc3cc(F)cc(Cl)c3)C2=O)c1)S(C)(=O)=O` [A166, N-(3-Chloro-5-fluorobenzyl)-(R)-3-hydroxy-1-[3-(methane-sulfonylmethylamino)phenyl]-2-oxopyrrolidine-3-carboxamide] was tested, and the IC50 was 1 to 10 µM. Work on `O=C1COCCN1c1ccc(N2CCC(O)(C(=O)NCc3cc(F)cc(Cl)c3)C2=O)cn1` (stereo not shown) [A167, N-(3-Chloro-5-fluorobenzyl)-3-hydroxy-2-oxo-1-[6-(3-oxo-morpholin-4-yl)-pyridin-3-yl]-pyrrolidine-3-carboxamide] yielded an IC50 of 0.01 to 1 µM. `O=C(NCCc1cc(F)cc(Cl)c1)C1(O)CCN(c2ccc3[nH]ncc3c2)C1=O` (stereo not shown) [A168] gave an IC50 of 0.01 to 1 µM. `O=C(NCc1cc(F)cc(Cl)c1)C1(O)CCN(c2cnn(-c3ccccc3)c2)C1=O` (stereo not shown) [A169, N-(3-Chloro-5-fluorobenzyl)-3-hydroxy-2-oxo-1-(1-phenyl-1H-pyrazol-4-yl)pyrrolidine-3-carboxamide] gave an IC50 of 0.01 to 1 µM. In the case of `CC(C)(C)OC(=O)N1CCC(n2cc(N3CCC(O)(C(=O)NCc4cc(F)cc(Cl)c4)C3=O)cn2)CC1` (stereo not shown) [A170, tert-Butyl 4-{4-[3-(3-chloro-5-fluorobenzylcarbamoyl)-3-hydroxy-2-oxopyrrolidin-1-yl]-pyrazol-1-yl}-piperidine-1-carboxylate], the IC50 is reported as 0.01 to 1 µM. With `CCC(=O)Nc1ccc(N2CC[C@](O)(C(=O)NCc3cc(F)cc(Cl)c3)C2=O)cn1` [A171, N-(3-Chloro-5-fluorobenzyl)-(S)-3-hydroxy-2-oxo-1-(6-propionylaminopyridin-3-yl)-pyrrolidine-3-carboxamide] the IC50 was 0.01 to 1 µM. `CCC(=O)Nc1ccc(N2CC[C@@](O)(C(=O)NCc3cc(F)cc(Cl)c3)C2=O)cn1` [A172, N-(3-Chloro-5-fluorobenzyl)-(R)-3-hydroxy-2-oxo-1-(6-propionylaminopyridin-3-yl)-pyrrolidine-3-carboxamide] showed an IC50 of 1 to 10 µM. Work on `O=C(NCc1cc(F)cc(Cl)c1)C1(O)CCN(c2ccc(N3CCOCC3)nc2)C1=O` (stereo not shown) [A173, N-(3-Chloro-5-fluorobenzyl)-3-hydroxy-1-(6-morpholin-4-yl-pyridin-3-yl)-2-oxopyrrolidine-3-carboxamide] yielded an IC50 of 0.01 to 1 µM. In the case of `CC(=O)Nc1ccc(N2CCC(O)(C(=O)NCCc3cccc(F)c3)C2=O)cn1` (stereo not shown) [A174, N-[2-(3-Fluorophenyl)ethyl]-1-(6-acetylaminopyridin-3-yl)-3-hydroxy-2-oxopyrrolidine-3-carboxamide], the IC50 is reported as 0.01 to 1 µM. Work on `CC(=O)Nc1ccc(N2CCC(O)(C(=O)NCCc3ccccc3F)C2=O)cn1` (stereo not shown) [A175, N-[2-(2-Fluorophenyl)ethyl]-1-(6-acetylaminopyridin-3-yl)-3-hydroxy-2-oxopyrrolidine-3-carboxamide] yielded an IC50 of 0.01 to 1 µM. `CC(=O)Nc1ccc(N2CCC(O)(C(=O)NCc3cc(F)cc(F)c3)C2=O)cn1` (stereo not shown) [A176, N-(3,5-Difluorobenzyl)-1-(6-acetylaminopyridin-3-yl)-3-hydroxy-2-oxopyrrolidine-3-carboxamide] was tested, and the IC50 was 0.01 to 1 µM. Molecule `NC(=O)c1cccc(N2CCC(O)(C(=O)NCCc3cccc(F)c3)C2=O)c1` (stereo not shown) [A177, N-[2-(3-Fluorophenyl)ethyl]-1-(3-carbamoylphenyl)-3-hydroxy-2-oxopyrrolidine-3-carboxamide] has an IC50 of 0.01 to 1 µM. With `NC(=O)c1cccc(N2CCC(O)(C(=O)NCc3cc(F)cc(F)c3)C2=O)c1` (stereo not shown) [A178, N-(3,5-Difluorobenzyl)-1-(3-carbamoylphenyl)-3-hydroxy-2-oxopyrrolidine-3-carboxamide] the IC50 was 0.01 to 1 µM. `NC(=O)c1cccc(N2CCC(O)(C(=O)NCCc3ccccc3F)C2=O)c1` (stereo not shown) [A179, N-[2-(2-Fluorophenyl)ethyl]-1-(3-carbamoylphenyl)-3-hydroxy-2-oxopyrrolidine-3-carboxamide] was tested, and the IC50 was 0.01 to 1 µM. For `O=C(NCc1cc(F)cc(Cl)c1)C1(O)CCN(c2cnn(C3CCNCC3)c2)C1=O` (stereo not shown) [A180, N-(3-Chloro-5-fluorobenzyl)-3-hydroxy-2-oxo-1-(1-piperidin-4-yl-1H-pyrazol-4-yl)pyrrolidine-3-carboxamide], the IC50 was 0.01 to 1 µM. `COc1ccc(CN2CC[C@](O)(C(=O)NCc3cc(F)cc(Cl)c3)C2=O)cc1` [A181, N-(3-Chloro-5-fluorobenzyl)-(S)-3-hydroxy-1-(4-methoxybenzyl)-2-oxopyrrolidine-3-carboxamide] showed an IC50 of 0.01 to 1 µM. For `COc1ccc(CN2CC[C@@](O)(C(=O)NCc3cc(F)cc(Cl)c3)C2=O)cc1` [A182, N-(3-Chloro-5-fluorobenzyl)-(R)-3-hydroxy-1-(4-methoxybenzyl)-2-oxopyrrolidine-3-carboxamide], the IC50 was over 10 µM. Molecule `O=C1CCc2cc(N3CCC(O)(C(=O)NCCc4cccc(F)c4)C3=O)ccc2N1` (stereo not shown) [A183, N-[2-(3-Fluorophenyl)ethyl]-3-hydroxy-2-oxo-1-(2-oxo-1,2,3,4-tetrahydroquinolin-6-yl)-pyrrolidine-3-carboxamide] has an IC50 of 0.01 to 1 µM. `O=C1CCc2cc(N3CCC(O)(C(=O)NCCc4ccccc4F)C3=O)ccc2N1` (stereo not shown) [A184, N-[2-(2-Fluorophenyl)ethyl]-3-hydroxy-2-oxo-1-(2-oxo-1,2,3,4-tetrahydroquinolin-6-yl)-pyrrolidine-3-carboxamide] showed an IC50 of 0.01 to 1 µM. Molecule `CC(=O)Nc1ccc(N2CCC(O)(C(=O)NCc3cccc(F)c3Cl)C2=O)cn1` (stereo not shown) [A186, N-(2-Chloro-3-fluorobenzyl)-1-(6-acetylaminopyridin-3-yl)-3-hydroxy-2-oxopyrrolidine-3-carboxamide] has an IC50 of 0.01 to 1 µM. For `O=C(CN1CCC(O)(C(=O)NCc2cc(F)cc(Cl)c2)C1=O)Nc1ccccc1` (stereo not shown) [A187, N-(3-Chloro-5-fluorobenzyl)-3-hydroxy-2-oxo-1-phenyl-carbamoylmethylpyrrolidine-3-carboxamide], the IC50 was 1 to 10 µM. Molecule `CC(=O)Nc1ccc(N2CCC(O)(C(=O)NCCc3cc(F)cc(F)c3)C2=O)cn1` (stereo not shown) [A188, N-[2-(3,5-Difluorophenyl)ethyl]-1-(6-acetylaminopyridin-3-yl)-3-hydroxy-2-oxopyrrolidine-3-carboxamide] has an IC50 of 0.01 to 1 µM. Molecule `O=C(NCCc1cc(F)cc(Cl)c1)[C@@]1(O)CCN(c2ccc3[nH]ncc3c2)C1=O` [A191, N-[2-(3-Chloro-5-fluorophenyl)-ethyl]-(S)-3-hydroxy-1-(1H-indazol-5-yl)-2-oxopyrrolidine-3-carboxamide] has an IC50 of 0.01 to 1 µM. `O=C(NCCc1cc(F)cc(Cl)c1)[C@]1(O)CCN(c2ccc3[nH]ncc3c2)C1=O` [A192, N-[2-(3-Chloro-5-fluorophenyl)-ethyl]-(R)-3-hydroxy-1-(1H-indazol-5-yl)-2-oxopyrrolidine-3-carboxamide] gave an IC50 of 1 to 10 µM. For `NC(=O)c1cccc(N2CCC(O)(C(=O)NCc3cccc(F)c3Cl)C2=O)c1` (stereo not shown) [A193, N-(2-Chloro-3-fluorobenzyl)-1-(3-carbamoylphenyl)-3-hydroxy-2-oxopyrrolidine-3-carboxamide], the IC50 was 0.01 to 1 µM. `CCNC(=O)c1cc2cc(N3CC[C@](O)(C(=O)NCc4cc(F)cc(Cl)c4)C3=O)ccc2o1` [A194, N-(3-Chloro-5-fluorobenzyl)-(S)-1-(2-ethylcarbamoylbenzofuran-5-yl)-3-hydroxy-2-oxopyrrolidine-3-carboxamide] gave an IC50 of 0.01 to 1 µM. In the case of `CCNC(=O)c1cc2cc(N3CC[C@@](O)(C(=O)NCc4cc(F)cc(Cl)c4)C3=O)ccc2o1` [A195, N-(3-Chloro-5-fluorobenzyl)-(R)-1-(2-ethylcarbamoylbenzofuran-5-yl)-3-hydroxy-2-oxopyrrolidine-3-carboxamide], the IC50 is reported as over 10 µM. For `O=C1CCc2cc(N3CCC(O)(C(=O)NCc4cccc(F)c4Cl)C3=O)ccc2N1` (stereo not shown) [A196, N-(2-Chloro-3-fluorobenzyl)-3-hydroxy-2-oxo-1-(2-oxo-1,2,3,4-tetrahydroquinolin-6-yl)-pyrrolidine-3-carboxamide], the IC50 was 0.01 to 1 µM. Molecule `O=C1COc2cc(N3CC[C@](O)(C(=O)NCc4cc(F)cc(Cl)c4)C3=O)ccc2N1` [A197, N-(3-Chloro-5-fluorobenzyl)-(S)-3-hydroxy-2-oxo-1-(3-oxo-3,4-dihydro-2H-benzo-1,4-oxazin-7-yl)pyrrolidine-3-carboxamide] has an IC50 of 0.01 to 1 µM. `O=C1COc2cc(N3CC[C@@](O)(C(=O)NCc4cc(F)cc(Cl)c4)C3=O)ccc2N1` [A198, N-(3-Chloro-5-fluorobenzyl)-(R)-3-hydroxy-2-oxo-1-(3-oxo-3,4-dihydro-2H-benzo-1,4-oxazin-7-yl)pyrrolidine-3-carboxamide] showed an IC50 of over 10 µM.
